US8410153B2, “Naphthalene isoxazoline invertebrate pest control agents” (E.I. du Pont de Nemours and Company, priority 2007, dated 2013)

Experiments:
Type in all cases: in vivo
[1] = system: diamondback moth (Plutella xylostella); test: Test A: control of diamondback moth on radish plant, foliar spray; conditions: sprayed at 50 ppm, held 6 days
Description: For evaluating control of diamondback moth (Plutella xylostella) the test unit consisted of a small open container with a 12-14-day-old radish plant inside. This was pre-infested with about 50 neonate larvae that were dispensed into the test unit via corncob grits using a bazooka inoculator. The larvae moved onto the test plant after being dispensed into the test unit.
(§1) Test compounds were formulated using a solution containing 10% acetone, 90% water and 300 ppm X-77™ Spreader Lo-Foam Formula non-ionic surfactant containing alkylarylpolyoxyethylene, free fatty acids, glycols and isopropanol (Loveland Industries, Inc. Greeley, Colo., USA). The formulated compounds were applied in 1 mL of liquid through a SUJ2 atomizer nozzle with ⅛ JJ custom body (Spraying Systems Co. Wheaton, Ill., USA) positioned 1.27 cm (0.5 inches) above the top of each test unit. All experimental compounds in these tests were sprayed at 50 ppm, and the test was replicated three times. After spraying of the formulated test compound, each test unit was allowed to dry for 1 h and then a black, screened cap was placed on top. The test units were held for 6 days in a growth chamber at 25° C. and 70% relative humidity. Plant feeding damage was then visually assessed based on foliage consumed, and a pest mortality rating was also counted and calculated for each test unit.

[2] = system: western flower thrips (Frankliniella occidentalis); test: Test E: control of western flower thrips on Soleil bean plant, contact and/or systemic; conditions: held 6 days
Protocol: as §1
For evaluating control of the western flower thrips (Frankliniella occidentalis) through contact and/or systemic means, the test unit consisted of a small open container with a 5-7-day-old Soleil Bean plant inside. Test compounds were formulated and sprayed as described for Test A. All experimental compounds in these tests were sprayed at 250 or 50 ppm as noted, and the test was replicated three times. After spraying, the test units were allowed to dry for 1 h, 22-27 adult thrips were added to each unit and then a black, screened cap was placed on top. The test units were held for 6 days at 25° C. and 45-55% relative humidity. A mortality rating was assessed along with a plant damage rating for each test unit.

[3] = system: fall armyworm (Spodoptera frugiperda); test: Test B: control of fall armyworm on corn (maize) plant, foliar spray; conditions: sprayed at 50 ppm
Protocol: as §1
For evaluating control of fall armyworm (Spodoptera frugiperda) the test unit consisted of a small open container with a 4-5-day-old corn (maize) plant inside. This was pre-infested (using a core sampler) with 10-15 1-day-old larvae on a piece of insect diet. Test compounds were formulated and sprayed at 50 ppm as described for Test A and replicated three times. After spraying, the test units were maintained in a growth chamber and then the control efficacy was rated for each test unit as described for Test A.

Structure (SMILES)	levels of control efficacy (20% or less feeding damage or 80% or more mortality) [1]	levels of control efficacy (20% or less feeding damage or 80% or more mortality) ([2]; sprayed at 50 ppm)	levels of control efficacy (20% or less feeding damage or 80% or more mortality) ([2]; sprayed at 250 ppm)	levels of control efficacy (20% or less feeding damage or 80% or more mortality) [3]
CC(C)NC(=O)C(C)NC(=O)c1ccc(C2=NOC(c3cc(C(F)(F)F)cc(C(F)(F)F)c3)(C(F)(F)F)C2)c2ccccc12 (mixture of isomers) [Compound 83]	very good to excellent	very good to excellent	very good to excellent	very good to excellent
O=C(CNC(=O)c1ccc(C2=NOC(c3cccc(OC(F)(F)F)c3)(C(F)(F)F)C2)c2ccccc12)NCC(F)(F)F (centres unmarked) [Compound 72]	very good to excellent			very good to excellent
CNC(=O)C(C)NC(=O)c1ccc(C2=NOC(c3cc(F)cc(C(F)(F)F)c3)(C(F)(F)F)C2)c2ccccc12 (mixture of isomers) [Compound 138]	very good to excellent	very good to excellent		very good to excellent
CCNC(=O)C(C)NC(=O)c1ccc(C2=NOC(c3cc(C(F)(F)F)cc(C(F)(F)F)c3)(C(F)(F)F)C2)c2ccccc12 (mixture of isomers) [Compound 96]	very good to excellent		very good to excellent	very good to excellent
O=C(CNC(=O)c1ccc(C2=NOC(c3cc(F)cc(C(F)(F)F)c3)(C(F)(F)F)C2)c2ccccc12)NCC(F)(F)F (racemic) [Compound 135]	very good to excellent		very good to excellent	very good to excellent
CC(NC(=O)CNC(=O)c1ccc(C2=NOC(c3cc(Cl)cc(C(F)(F)F)c3)(C(F)(F)F)C2)c2ccccc12)C(F)(F)F (centres unmarked) [Compound 113]	very good to excellent			very good to excellent
O=C(CNC(=O)c1ccc(C2=NOC(c3cc(Cl)cc(Cl)c3)(C(F)(F)F)C2)c2ccccc12)NCC(F)(F)C(F)(F)C(F)(F)F (centres unmarked) [Compound 13]	very good to excellent			very good to excellent
CC(NC(=O)c1ccc(C2=NOC(c3cc(Cl)cc(C(F)(F)F)c3)(C(F)(F)F)C2)c2ccccc12)C(=O)NCC(F)(F)F (mixture of isomers) [Compound 127]				very good to excellent
CC(C)SCCNC(=O)c1ccc(C2=NOC(c3cccc(C(F)(F)F)c3)(C(F)(F)F)C2)c2ccccc12 (racemic) [Compound 55]	very good to excellent			very good to excellent
O=C(CNC(=O)c1ccc(C2=NOC(c3cccc(Br)c3)(C(F)(F)F)C2)c2ccccc12)NCC(F)(F)F (centres unmarked) [Compound 70]	very good to excellent			very good to excellent
CCCNC(=O)C(C)NC(=O)c1ccc(C2=NOC(c3cc(C(F)(F)F)cc(C(F)(F)F)c3)(C(F)(F)F)C2)c2ccccc12 (centres unmarked) [Compound 89]				very good to excellent
CNC(=O)C(C)NC(=O)c1ccc(C2=NOC(c3cc(Cl)cc(C(F)(F)F)c3)(C(F)(F)F)C2)c2ccccc12 (mixture of isomers) [Compound 125]				very good to excellent
CC(C)SCCCNC(=O)c1ccc(C2=NOC(c3cccc(C(F)(F)F)c3)(C(F)(F)F)C2)c2ccccc12 (racemic) [Compound 56]	very good to excellent			very good to excellent
O=C(CNC(=O)c1ccc(C2=NOC(c3cc(Cl)cc(Cl)c3)(C(F)(F)F)C2)c2ccccc12)NCCCl (centres unmarked) [Compound 10]	very good to excellent			very good to excellent
CCNC(=O)C(C)NC(=O)c1ccc(C2=NOC(c3cc(Cl)cc(C(F)(F)F)c3)(C(F)(F)F)C2)c2ccccc12 (mixture of isomers) [Compound 126]				very good to excellent
CNC(=O)CNC(=O)c1ccc(C2=NOC(c3cc(Cl)cc(C(F)(F)F)c3)(C(F)(F)F)C2)c2ccccc12 (centres unmarked) [Compound 116]	very good to excellent			very good to excellent
O=C(NCCO)c1ccc(C2=NOC(c3cc(C(F)(F)F)cc(C(F)(F)F)c3)(C(F)(F)F)C2)c2ccccc12 (centres unmarked) [Compound 69]	very good to excellent			very good to excellent
CSCCNC(=O)c1ccc(C2=NOC(c3cccc(OC(F)(F)F)c3)(C(F)(F)F)C2)c2ccccc12 (centres unmarked) [Compound 71]	very good to excellent			very good to excellent
C[S+]([O-])CCNC(=O)c1ccc(C2=NOC(c3cc(Cl)cc(C(F)(F)F)c3)(C(F)(F)F)C2)c2ccccc12 (centres unmarked) [Compound 114]	very good to excellent			very good to excellent
CC(C)CNC(=O)C(C)NC(=O)c1ccc(C2=NOC(c3cc(Cl)cc(C(F)(F)F)c3)(C(F)(F)F)C2)c2ccccc12 (mixture of isomers) [Compound 130]				very good to excellent
CCC(O)CNC(=O)c1ccc(C2=NOC(c3cccc(C(F)(F)F)c3)(C(F)(F)F)C2)c2ccccc12 (centres unmarked) [Compound 64]	very good to excellent			very good to excellent
CC(CO)NC(=O)c1ccc(C2=NOC(c3cc(C(F)(F)F)cc(C(F)(F)F)c3)(C(F)(F)F)C2)c2ccccc12 (centres unmarked) [Compound 68]	very good to excellent			very good to excellent
O=C(NCO)c1ccc(C2=NOC(c3cc(Cl)cc(Cl)c3)(C(F)(F)F)C2)c2ccccc12 (centres unmarked) [Compound 82]	very good to excellent			very good to excellent
O=C(CNC(=O)c1ccc(C2=NOC(c3cc(Cl)cc(Cl)c3)(C(F)(F)F)C2)c2ccccc12)NCC(F)(F)C(F)(F)F (centres unmarked) [Compound 14]	very good to excellent			very good to excellent
CC(NC(=O)c1ccc(C2=NOC(c3cc(Cl)cc(C(F)(F)F)c3)(C(F)(F)F)C2)c2ccccc12)C(=O)NC(C)C(F)(F)F (centres unmarked) [Compound 115]	very good to excellent			very good to excellent
CC(NC(=O)CNC(=O)c1ccc(C2=NOC(c3cc(C(F)(F)F)cc(C(F)(F)F)c3)(C(F)(F)F)C2)c2ccccc12)C(F)(F)F (centres unmarked) [Compound 91]		very good to excellent		very good to excellent
CC(O)(CNC(=O)c1ccc(C2=NOC(c3cccc(C(F)(F)F)c3)(C(F)(F)F)C2)c2ccccc12)C(F)(F)F (mixture of isomers) [Compound 45]	very good to excellent			very good to excellent
CCC(CO)NC(=O)c1ccc(C2=NOC(c3cccc(C(F)(F)F)c3)(C(F)(F)F)C2)c2ccccc12 (mixture of isomers) [Compound 46]	very good to excellent			very good to excellent
